Earlier results in publication PMC9311059, “P‐Glycoprotein and Breast Cancer Resistance Protein Transporter Inhibition by Cyclosporine and Quinidine on the Pharmacokinetics of Oral Rimegepant in Healthy Subjects” (Clinical Pharmacology in Drug Development, 2022).

Conditions: oral midazolam coadministered with cyclosporine; cited from earlier work

Cc1ncc2n1-c1ccc(Cl)cc1C(c1ccccc1F)=NC2 [midazolam]
change in midazolam Cmax: no meaningful change | increase in midazolam AUC: 46%
